We go through one substance from patent US9756861B2, “Micro-colloidal silicic acid / boric acid composition and a method of preparing a bioenhancing solution and powder” (Barlaa B.V., priority 2009, dated 2017).

The subject of the assay is seeds of wheat. How it is done:
Different levels of silicic acid were tested on seeds and in pot experiments to assess their effects on improvement of seed and the growth and yield in wheat.

As for silicic acid, the “plant growth and yield” value (0.25% and 0.50% silicic acid application, all the varieties of wheat) is “highest”. In addition, the rate of germination entry (silicic acid applied at 0.25-0.50% level, wheat seeds) is on record as “increased”.
